Measurements from PubChem BioAssay (NCI).
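Test compounds were applied to cells in 96-well plates for 48 hours at 5 doses. Definition used: TGI = concentration required for complete inhibition of growth.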

Columns and labels:
Experiment in all cases: DTP human tumour cell line panel, 48 h
[1] = tested on: OVCAR-5 ovarian
[2] = tested on: PC-3 prostate
[3] = tested on: TK-10 renal
[4] = tested on: HCT-15 colon
[5] = tested on: HL-60(TB) leukemia
[6] = tested on: SF-295 CNS
[7] = tested on: BT-549 breast
[8] = tested on: NCI-H460 lung
[9] = tested on: SW-620 colon
[10] = tested on: K-562 leukemia
[11] = tested on: A549 NSCLC
[12] = tested on: HCC-2998 colon
[13] = tested on: MDA-MB-435
[14] = tested on: SNB-19 CNS
[15] = tested on: SK-MEL-28 melanoma
[16] = tested on: SN12C renal
[17] = tested on: NCI-H226 lung
[18] = tested on: NCI-H522 lung
[19] = tested on: RPMI-8226 leukemia
[20] = tested on: SF-539 CNS
[21] = tested on: OVCAR-8 ovarian
[22] = tested on: M14 melanoma
[23] = tested on: CCRF-CEM leukemia
[24] = tested on: MDA-MB-231 breast
[25] = tested on: HT29 colon
[26] = tested on: T-47D breast
[27] = tested on: HOP-92 NSCLC
[28] = tested on: UO-31 renal
[29] = tested on: ACHN renal
[30] = tested on: RXF 393 renal
[31] = tested on: HOP-62 NSCLC
[32] = tested on: OVCAR-4 ovarian
[33] = tested on: COLO 205 colon
[34] = tested on: U251 CNS
[35] = tested on: SNB-75 CNS
[36] = tested on: 786-0 renal
[37] = tested on: SF-268 CNS
[38] = tested on: CAKI-1 renal
[39] = tested on: MALME-3M melanoma
[40] = tested on: MDA-N
[41] = tested on: NCI-H23 lung
[42] = tested on: MCF7 breast
[43] = tested on: MOLT-4 leukemia
[44] = tested on: SK-OV-3 ovarian
[45] = tested on: SK-MEL-5 melanoma
[46] = tested on: NCI/ADR-RES ovarian
[47] = tested on: EKVX NSCLC
[48] = tested on: SR leukemia
[49] = tested on: UACC-257 melanoma
[50] = tested on: LOX IMVI melanoma
[51] = tested on: HCT-116 colon
[52] = tested on: IGROV1 ovarian
[53] = tested on: UACC-62 melanoma
[54] = tested on: SK-MEL-2 melanoma
[55] = tested on: HS 578T breast
[56] = tested on: A498 renal
[57] = tested on: DU-145 prostate
[58] = tested on: OVCAR-3 ovarian
[59] = tested on: KM12 colon

CCNC(=O)OCC1C2=C(C(=O)C(C)=C(N)C2=O)N2CC3C(N3C)C12OC (stereo not given)
TGI [1]: > 100 µM
TGI [2]: > 100 µM
TGI [3]: > 100 µM
TGI [4]: 50.7 µM
TGI [5]: > 44.1 µM
TGI [6]: > 100 µM
TGI [7]: 99.1 µM
TGI [8]: 12.1 µM
TGI [9]: 32 µM
TGI [10]: > 100 µM
TGI [11]: > 100 µM
TGI [12]: 35.3 µM
TGI [13]: > 100 µM
TGI [14]: > 100 µM
TGI [15]: > 100 µM
TGI [16]: > 100 µM
TGI [17]: > 100 µM
TGI [18]: 34.5 µM
TGI [19]: > 100 µM
TGI [20]: > 85.1 µM
TGI [21]: > 100 µM
TGI [22]: > 100 µM
TGI [23]: > 100 µM
TGI [24]: > 100 µM
TGI [25]: > 100 µM
TGI [26]: > 100 µM
TGI [27]: > 100 µM
TGI [28]: 64.3 µM
TGI [29]: > 61.9 µM
TGI [30]: > 100 µM
TGI [31]: > 100 µM
TGI [32]: > 79 µM
TGI [33]: > 100 µM
TGI [34]: > 100 µM
TGI [35]: > 100 µM
TGI [36]: > 83 µM
TGI [37]: > 100 µM
TGI [38]: > 100 µM
TGI [39]: 41.8 µM
TGI [40]: > 100 µM
TGI [41]: 14.2 µM
TGI [42]: > 100 µM
TGI [43]: > 76.3 µM
TGI [44]: > 100 µM
TGI [45]: 29.5 µM
TGI [46]: > 100 µM
TGI [47]: > 100 µM
TGI [48]: > 32.6 µM
TGI [49]: > 100 µM
TGI [50]: > 68.7 µM
TGI [51]: > 63.5 µM
TGI [52]: 77 µM
TGI [53]: 33.4 µM
TGI [54]: 71.2 µM
TGI [55]: > 100 µM
TGI [56]: 77 µM
TGI [57]: > 100 µM
TGI [58]: > 86.2 µM

CCOC(=O)NC(C(F)(F)F)(C(F)(F)F)P(=O)(OCC(C)C)OCC(C)C
TGI [1]: 58.7 µM
TGI [2]: > 100 µM
TGI [3]: 65.8 µM
TGI [4]: 17.1 µM
TGI [5]: 22.4 µM
TGI [6]: > 100 µM
TGI [7]: 29 µM
TGI [8]: > 100 µM
TGI [9]: 17.2 µM
TGI [10]: > 100 µM
TGI [11]: > 100 µM
TGI [12]: > 100 µM
TGI [13]: > 100 µM
TGI [59]: > 100 µM
TGI [14]: > 100 µM
TGI [15]: 54.2 µM
TGI [16]: 49 µM
TGI [17]: 32.6 µM
TGI [18]: 11.6 µM
TGI [19]: > 100 µM
TGI [20]: 48.8 µM
TGI [21]: 31.4 µM
TGI [22]: 26.1 µM
TGI [23]: > 100 µM
TGI [24]: 39 µM
TGI [25]: 33.8 µM
TGI [26]: > 100 µM
TGI [27]: 36.7 µM
TGI [28]: 30.3 µM
TGI [29]: 52.8 µM
TGI [30]: 24.5 µM
TGI [31]: > 100 µM
TGI [33]: 31 µM
TGI [34]: > 100 µM
TGI [35]: 97.1 µM
TGI [37]: 57.3 µM
TGI [38]: > 100 µM
TGI [39]: 60.7 µM
TGI [40]: 27.1 µM
TGI [42]: 21.1 µM
TGI [44]: 66.9 µM
TGI [45]: 24.9 µM
TGI [46]: 47 µM
TGI [47]: 74.6 µM
TGI [48]: > 100 µM
TGI [50]: 20.6 µM
TGI [51]: 16.6 µM
TGI [52]: 51.5 µM
TGI [53]: 29.4 µM
TGI [54]: 43 µM
TGI [55]: 56.5 µM
TGI [56]: > 100 µM
TGI [57]: > 100 µM
TGI [58]: 64 µM

N#C/C(=C/N1C(=O)/C(=C/c2ccc([N+](=O)[O-])cc2)SC1=S)c1nc2ccccc2s1
TGI [1]: 80.8 µM
TGI [2]: 40.4 µM
TGI [3]: 66.9 µM
TGI [4]: > 100 µM
TGI [5]: > 100 µM
TGI [6]: 33.9 µM
TGI [7]: 73.7 µM
TGI [8]: 43.8 µM
TGI [9]: > 100 µM
TGI [10]: > 100 µM
TGI [11]: > 100 µM
TGI [12]: 29.9 µM
TGI [13]: > 100 µM
TGI [59]: > 100 µM
TGI [14]: > 100 µM
TGI [15]: > 100 µM
TGI [16]: 81 µM
TGI [17]: 78.4 µM
TGI [18]: 53.8 µM
TGI [19]: 68.7 µM
TGI [20]: > 100 µM
TGI [21]: > 100 µM
TGI [22]: 98.5 µM
TGI [23]: > 100 µM
TGI [24]: 37 µM
TGI [25]: > 100 µM
TGI [26]: 69.5 µM
TGI [27]: 63.3 µM
TGI [28]: 63.3 µM
TGI [29]: 55.3 µM
TGI [30]: 52.6 µM
TGI [31]: 7.32 µM
TGI [32]: > 100 µM
TGI [33]: 30 µM
TGI [34]: 41.7 µM
TGI [35]: 69.2 µM
TGI [36]: > 100 µM
TGI [37]: > 100 µM
TGI [38]: > 100 µM
TGI [39]: 73.3 µM
TGI [40]: > 100 µM
TGI [41]: 89.1 µM
TGI [42]: 83.2 µM
TGI [44]: 43.6 µM
TGI [45]: 26.9 µM
TGI [46]: > 100 µM
TGI [47]: 61.4 µM
TGI [48]: > 100 µM
TGI [49]: 40.5 µM
TGI [50]: > 100 µM
TGI [51]: 32.7 µM
TGI [52]: > 100 µM
TGI [53]: 24 µM
TGI [54]: 36 µM
TGI [55]: > 100 µM
TGI [56]: 33.2 µM
TGI [57]: > 100 µM
TGI [58]: 15.9 µM
